pKi: −log10 of the molar value.
Experiments:
D(2) dopamine receptor [1] = molecular target: T1, D(2) dopamine receptor (Homo sapiens, UniProt P14416); experiment: Displacement of [3H]-YM 09151 from D2 receptor
D(4) dopamine receptor [2] = molecular target: T2, D(4) dopamine receptor (Homo sapiens, UniProt P21917); experiment: Displacement of [3H]-YM 09151 from D4 receptor
T2 sequence (P21917 whole entry): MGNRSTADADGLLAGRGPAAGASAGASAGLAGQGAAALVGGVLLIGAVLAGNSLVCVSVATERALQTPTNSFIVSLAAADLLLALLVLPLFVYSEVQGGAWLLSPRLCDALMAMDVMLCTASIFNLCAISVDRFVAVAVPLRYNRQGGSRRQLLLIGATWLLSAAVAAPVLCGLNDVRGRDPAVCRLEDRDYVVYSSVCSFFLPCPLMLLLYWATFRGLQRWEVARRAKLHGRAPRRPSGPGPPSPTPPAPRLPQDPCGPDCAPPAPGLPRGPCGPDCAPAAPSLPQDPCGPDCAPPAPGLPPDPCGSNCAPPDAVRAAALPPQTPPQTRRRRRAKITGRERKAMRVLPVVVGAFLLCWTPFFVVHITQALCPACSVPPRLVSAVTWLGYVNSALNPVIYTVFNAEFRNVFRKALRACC

[3] = molecular target: T3, Adrenergic receptor alpha-1 (Rattus norvegicus, UniProt P15823+P23944+P43140); experiment: Displacement of [3H]prazosin from alpha-1 adrenergic receptor of rat brain homogenate
T3 sequence (P15823 whole entry): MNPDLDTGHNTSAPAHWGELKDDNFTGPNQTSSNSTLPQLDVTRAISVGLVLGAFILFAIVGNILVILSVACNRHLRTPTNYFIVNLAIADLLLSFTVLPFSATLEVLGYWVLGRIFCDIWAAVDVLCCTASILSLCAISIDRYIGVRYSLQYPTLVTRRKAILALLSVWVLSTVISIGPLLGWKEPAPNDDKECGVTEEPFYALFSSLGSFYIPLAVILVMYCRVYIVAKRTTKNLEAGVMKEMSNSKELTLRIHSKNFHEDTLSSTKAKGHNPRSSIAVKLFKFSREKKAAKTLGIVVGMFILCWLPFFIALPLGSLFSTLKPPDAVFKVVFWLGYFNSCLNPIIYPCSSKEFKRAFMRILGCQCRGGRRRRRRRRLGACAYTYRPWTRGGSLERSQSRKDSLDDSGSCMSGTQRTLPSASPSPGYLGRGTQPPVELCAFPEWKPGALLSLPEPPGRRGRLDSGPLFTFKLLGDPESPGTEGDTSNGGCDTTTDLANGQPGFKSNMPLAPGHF
T3 sequence (P23944 whole entry): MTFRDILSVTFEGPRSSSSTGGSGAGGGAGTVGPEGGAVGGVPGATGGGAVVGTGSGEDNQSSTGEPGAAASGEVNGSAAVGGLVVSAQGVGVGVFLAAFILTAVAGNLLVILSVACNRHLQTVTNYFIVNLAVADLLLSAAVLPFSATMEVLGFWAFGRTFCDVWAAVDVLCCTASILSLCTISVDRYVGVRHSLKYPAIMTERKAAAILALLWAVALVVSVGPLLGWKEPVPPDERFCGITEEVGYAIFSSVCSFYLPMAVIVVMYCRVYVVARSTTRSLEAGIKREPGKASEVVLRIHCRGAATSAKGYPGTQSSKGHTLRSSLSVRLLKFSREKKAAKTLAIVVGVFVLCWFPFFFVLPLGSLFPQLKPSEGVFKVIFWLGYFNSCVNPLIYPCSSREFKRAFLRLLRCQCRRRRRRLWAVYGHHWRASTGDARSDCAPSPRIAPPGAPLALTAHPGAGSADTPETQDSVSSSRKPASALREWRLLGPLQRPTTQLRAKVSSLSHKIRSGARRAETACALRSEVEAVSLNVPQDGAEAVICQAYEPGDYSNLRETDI
T3 sequence (P43140 whole entry): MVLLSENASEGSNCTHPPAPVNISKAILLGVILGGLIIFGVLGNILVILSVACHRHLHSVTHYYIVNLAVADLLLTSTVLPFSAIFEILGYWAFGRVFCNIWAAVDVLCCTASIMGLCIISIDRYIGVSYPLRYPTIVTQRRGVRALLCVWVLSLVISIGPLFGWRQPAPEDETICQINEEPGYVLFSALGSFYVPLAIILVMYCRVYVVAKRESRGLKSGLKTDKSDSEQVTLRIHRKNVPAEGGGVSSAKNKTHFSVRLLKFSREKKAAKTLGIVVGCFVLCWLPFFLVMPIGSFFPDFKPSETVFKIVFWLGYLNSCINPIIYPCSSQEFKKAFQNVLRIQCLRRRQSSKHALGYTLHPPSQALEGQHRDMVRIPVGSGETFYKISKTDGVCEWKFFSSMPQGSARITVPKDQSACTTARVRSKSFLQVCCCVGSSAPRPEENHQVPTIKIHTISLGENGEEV

D(4) dopamine receptor [4] = molecular target: T2, D(4) dopamine receptor; experiment: D4 receptor functional activity was measured inhibition of quinpirole stimulated [35S]GTP-gamma-S binding from cell membranes.
D(2) dopamine receptor [5] = molecular target: T1, D(2) dopamine receptor; experiment: D2 receptor functional activity was measured through reversal of quinpirole inhibited, forskolin stimulated cAMP production from whole cells

T1 sequence (P14416 whole entry): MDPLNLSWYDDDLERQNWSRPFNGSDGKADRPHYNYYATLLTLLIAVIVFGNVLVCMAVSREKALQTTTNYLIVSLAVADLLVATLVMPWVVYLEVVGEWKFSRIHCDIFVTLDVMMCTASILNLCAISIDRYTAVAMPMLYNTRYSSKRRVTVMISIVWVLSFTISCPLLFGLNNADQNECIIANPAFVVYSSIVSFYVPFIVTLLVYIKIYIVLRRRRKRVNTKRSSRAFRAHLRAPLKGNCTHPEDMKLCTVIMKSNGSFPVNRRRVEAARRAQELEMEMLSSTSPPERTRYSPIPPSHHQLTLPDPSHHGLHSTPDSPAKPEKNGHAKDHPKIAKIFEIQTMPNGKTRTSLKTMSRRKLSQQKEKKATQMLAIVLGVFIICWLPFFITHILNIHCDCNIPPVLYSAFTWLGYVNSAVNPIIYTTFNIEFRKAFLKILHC

SMILES | pKi (D(2) dopamine receptor [1]) | pKi (D(4) dopamine receptor [2]) | Ki [3] [nM] | pKi (D(4) dopamine receptor [4]) | pKi (D(2) dopamine receptor [5])
Cc1ccc(CN2CCN(C3CCc4cccc5c4N(C3=O)C(C)C5)CC2)cc1 (configuration not stated) | 7.59 | 8.00 | 1000 | – | –
CCN1C(=O)C(N2CCN(Cc3ccc(Cl)cc3)CC2)Cc2ccccc21 (configuration not stated) | – | – | 1265 | – | –
CC1Cc2cccc3c2N1C(=O)C(N1CCN(Cc2ccc(Cl)cc2)CC1)CC3 (configuration not stated) | 6.86 | – | 1000 | – | –
CC1(C)Cc2cccc3c2N1C(=O)C(N1CCN(Cc2ccc(Cl)cc2)CC1)CC3 (configuration not stated) | – | – | 1735 | – | –
Cc1ccc(CN2CCN(C3CCc4cccc5c4N(C3=O)C(C)(C)C5)CC2)cc1 (configuration not stated) | 6.78 | 7.92 | 490 | – | –
CCN1C(=O)C(N2CCN(Cc3ccc(Cl)cc3)CC2)CCc2ccccc21 (configuration not stated) | – | – | 2678 | – | –
Cc1ccc(CN2CCN(C3CCc4cccc5c4N(CC5)C3=O)CC2)cc1 (configuration not stated) | 6.68 | – | 1361 | – | –
COc1ccc(Cl)cc1CN1CCN(C2CCc3cccc4c3N(C2=O)C(C)(C)C4)CC1 (configuration not stated) | 6.66 | 7.54 | 1056 | – | –
O=C1C(N2CCN(Cc3ccc(Cl)cc3)CC2)CCc2cccc3c2N1CC3 (configuration not stated) | 6.94 | 8.30 | 2284 | 8.52 | 7.21
COc1ccc(C)cc1CN1CCN(C2CCc3cccc4c3N(C2=O)C(C)(C)C4)CC1 (configuration not stated) | 6.50 | 7.19 | 983 | – | –
COc1cc(C)ccc1CN1CCN(C2CCc3cccc4c3N(C2=O)C(C)(C)C4)CC1 (configuration not stated) | 6.02 | 7.47 | 653 | – | –
